The target of assay [1] is Tyrosine-protein kinase HCK (Homo sapiens) (UniProt P08631). Nature of the assay: Inhibition of human HCK at 500 nM by HotSpot assay relative to control.
Assay [2] concerns the target T1, Lymphokine-activated killer T-cell-originated protein kinase (Homo sapiens) (UniProt Q96KB5).
T1 sequence (whole entry): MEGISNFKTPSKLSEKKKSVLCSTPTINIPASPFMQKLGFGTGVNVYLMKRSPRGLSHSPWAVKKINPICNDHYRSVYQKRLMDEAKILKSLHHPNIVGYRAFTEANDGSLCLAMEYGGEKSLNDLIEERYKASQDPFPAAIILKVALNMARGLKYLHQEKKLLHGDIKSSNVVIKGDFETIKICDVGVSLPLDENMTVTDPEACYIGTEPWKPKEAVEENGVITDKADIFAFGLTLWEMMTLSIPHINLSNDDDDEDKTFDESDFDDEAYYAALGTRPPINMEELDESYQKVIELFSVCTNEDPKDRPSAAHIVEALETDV
In words: Inhibition of human TOPK at 500 nM by HotSpot assay relative to control.

Assay [3] has as its target Calcium/calmodulin-dependent protein kinase type II subunit delta (Homo sapiens) (UniProt Q13557). Nature of the assay: Inhibition of human CAMK2d at 500 nM by HotSpot assay relative to control.
Assay [4] has as its target T2, Serine/threonine-protein kinase Sgk2 (Homo sapiens) (UniProt Q9HBY8).
T2 sequence (whole entry): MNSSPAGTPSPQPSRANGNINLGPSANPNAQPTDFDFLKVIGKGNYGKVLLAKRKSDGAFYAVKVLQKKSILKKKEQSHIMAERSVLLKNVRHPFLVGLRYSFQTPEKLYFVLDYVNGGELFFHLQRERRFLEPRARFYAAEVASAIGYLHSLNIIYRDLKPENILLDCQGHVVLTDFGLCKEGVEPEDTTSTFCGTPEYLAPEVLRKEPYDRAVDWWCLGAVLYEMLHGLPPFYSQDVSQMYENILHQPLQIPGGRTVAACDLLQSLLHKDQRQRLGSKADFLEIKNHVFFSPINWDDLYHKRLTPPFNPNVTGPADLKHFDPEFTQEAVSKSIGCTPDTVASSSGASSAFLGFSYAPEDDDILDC
In words: Inhibition of human SGK2 at 500 nM by HotSpot assay relative to control.

The target in assay [5] is T3, Serine/threonine-protein kinase BRSK2 (Homo sapiens) (UniProt Q8IWQ3).
T3 sequence (whole entry): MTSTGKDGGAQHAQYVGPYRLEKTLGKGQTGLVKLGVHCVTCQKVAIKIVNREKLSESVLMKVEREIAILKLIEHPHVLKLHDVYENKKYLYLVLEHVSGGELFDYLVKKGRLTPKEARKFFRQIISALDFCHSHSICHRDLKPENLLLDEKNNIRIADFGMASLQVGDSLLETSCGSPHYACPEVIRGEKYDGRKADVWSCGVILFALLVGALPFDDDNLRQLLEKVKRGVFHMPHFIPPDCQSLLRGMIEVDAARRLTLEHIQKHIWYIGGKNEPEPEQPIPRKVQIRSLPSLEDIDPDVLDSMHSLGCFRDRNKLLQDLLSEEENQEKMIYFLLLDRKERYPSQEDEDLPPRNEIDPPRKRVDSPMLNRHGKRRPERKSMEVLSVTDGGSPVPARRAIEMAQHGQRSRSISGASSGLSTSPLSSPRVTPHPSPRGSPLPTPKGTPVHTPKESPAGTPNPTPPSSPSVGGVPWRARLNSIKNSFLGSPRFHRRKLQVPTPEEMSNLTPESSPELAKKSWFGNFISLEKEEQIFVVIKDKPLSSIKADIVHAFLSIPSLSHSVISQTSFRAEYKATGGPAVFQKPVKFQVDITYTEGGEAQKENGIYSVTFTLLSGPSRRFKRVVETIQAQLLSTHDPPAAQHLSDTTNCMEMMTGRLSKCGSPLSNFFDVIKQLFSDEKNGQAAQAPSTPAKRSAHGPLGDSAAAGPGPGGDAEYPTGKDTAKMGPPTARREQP
In words: Inhibition of human BRSK2 at 500 nM by HotSpot assay relative to control.

Assay [6] concerns the target Cyclin-dependent kinase 5/CDK5 activator 1 (Homo sapiens) (UniProt Q00535+Q15078). In words: Inhibition of human CDK5/p35 at 500 nM by HotSpot assay relative to control. It is filed as protein-complex assay.
Assay [7] has as its target T4, Ephrin type-A receptor 1 (Homo sapiens) (UniProt P21709).
T4 sequence (whole entry): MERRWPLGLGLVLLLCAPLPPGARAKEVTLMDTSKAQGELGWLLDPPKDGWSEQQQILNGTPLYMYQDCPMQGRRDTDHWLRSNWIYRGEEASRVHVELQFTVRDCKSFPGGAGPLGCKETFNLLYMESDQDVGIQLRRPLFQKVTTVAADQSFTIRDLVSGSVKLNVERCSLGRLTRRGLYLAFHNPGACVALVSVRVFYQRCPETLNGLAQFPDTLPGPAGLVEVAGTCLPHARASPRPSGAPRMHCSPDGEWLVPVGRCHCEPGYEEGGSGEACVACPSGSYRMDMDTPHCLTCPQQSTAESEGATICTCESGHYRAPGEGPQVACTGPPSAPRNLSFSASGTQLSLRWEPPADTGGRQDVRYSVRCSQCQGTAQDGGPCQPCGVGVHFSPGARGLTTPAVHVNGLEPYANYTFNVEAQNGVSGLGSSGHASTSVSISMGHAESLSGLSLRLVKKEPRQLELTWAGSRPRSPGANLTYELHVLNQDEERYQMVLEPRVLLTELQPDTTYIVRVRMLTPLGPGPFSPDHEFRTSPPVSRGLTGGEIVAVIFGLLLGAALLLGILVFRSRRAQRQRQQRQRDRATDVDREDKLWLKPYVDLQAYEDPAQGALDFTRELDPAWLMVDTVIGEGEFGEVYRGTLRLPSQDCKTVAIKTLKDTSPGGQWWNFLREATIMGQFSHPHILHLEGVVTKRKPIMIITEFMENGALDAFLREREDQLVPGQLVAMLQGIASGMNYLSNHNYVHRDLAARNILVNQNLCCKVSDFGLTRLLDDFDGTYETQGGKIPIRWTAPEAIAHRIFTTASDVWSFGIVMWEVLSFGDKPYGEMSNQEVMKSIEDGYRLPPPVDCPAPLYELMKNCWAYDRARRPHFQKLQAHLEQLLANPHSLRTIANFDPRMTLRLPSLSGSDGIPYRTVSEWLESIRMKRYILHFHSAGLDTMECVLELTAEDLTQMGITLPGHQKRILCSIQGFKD
In words: Inhibition of human EPHA1 at 500 nM by HotSpot assay relative to control.

For assay [8], the target named is Cyclin-dependent kinase 2/cyclin E1 (Homo sapiens) (UniProt P24864+P24941). In words: Inhibition of human CDK2/cyclin E at 500 nM by HotSpot assay relative to control. Format: protein-complex assay.
For assay [9], the target named is Casein kinase I isoform gamma-3 (Homo sapiens) (UniProt Q9Y6M4). Nature of the assay: Inhibition of human CK1g3 at 500 nM by HotSpot assay relative to control.
Sequence of Casein kinase I isoform gamma-3 (Homo sapiens) (Q9Y6M4 whole entry, looked up, canonical isoform): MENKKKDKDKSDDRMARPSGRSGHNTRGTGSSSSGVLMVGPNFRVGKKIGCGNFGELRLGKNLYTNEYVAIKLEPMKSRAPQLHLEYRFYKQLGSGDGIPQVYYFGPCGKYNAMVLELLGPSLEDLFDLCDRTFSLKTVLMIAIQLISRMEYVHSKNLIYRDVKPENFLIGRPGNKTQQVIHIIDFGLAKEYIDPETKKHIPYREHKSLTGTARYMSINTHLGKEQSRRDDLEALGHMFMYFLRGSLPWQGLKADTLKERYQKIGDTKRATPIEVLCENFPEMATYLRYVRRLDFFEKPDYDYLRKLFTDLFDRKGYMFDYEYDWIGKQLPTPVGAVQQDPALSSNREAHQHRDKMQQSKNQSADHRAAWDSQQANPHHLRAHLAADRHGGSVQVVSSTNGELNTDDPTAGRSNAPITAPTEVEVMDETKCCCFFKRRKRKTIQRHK

Each structure is given as a SMILES string.

Sequence of Cyclin-dependent kinase 5/CDK5 activator 1 (Homo sapiens) (Q00535 whole entry): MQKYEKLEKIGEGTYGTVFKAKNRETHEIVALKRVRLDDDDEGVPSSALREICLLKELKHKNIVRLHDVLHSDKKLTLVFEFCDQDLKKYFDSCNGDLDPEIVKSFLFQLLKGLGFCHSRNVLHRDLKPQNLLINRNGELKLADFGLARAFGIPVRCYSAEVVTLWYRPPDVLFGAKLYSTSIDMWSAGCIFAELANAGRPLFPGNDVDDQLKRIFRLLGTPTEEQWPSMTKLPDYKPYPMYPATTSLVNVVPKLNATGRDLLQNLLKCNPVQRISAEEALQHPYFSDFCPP
Sequence of Cyclin-dependent kinase 5/CDK5 activator 1 (Homo sapiens) (Q15078 99-307 partner limits assumed): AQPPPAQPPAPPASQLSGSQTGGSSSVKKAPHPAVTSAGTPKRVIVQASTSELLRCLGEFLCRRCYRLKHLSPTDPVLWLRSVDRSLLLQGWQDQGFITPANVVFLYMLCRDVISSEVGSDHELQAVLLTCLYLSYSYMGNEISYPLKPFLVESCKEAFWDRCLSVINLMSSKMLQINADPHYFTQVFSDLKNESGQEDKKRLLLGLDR
Sequence of Tyrosine-protein kinase HCK (Homo sapiens) (P08631 2-526 limits assumed): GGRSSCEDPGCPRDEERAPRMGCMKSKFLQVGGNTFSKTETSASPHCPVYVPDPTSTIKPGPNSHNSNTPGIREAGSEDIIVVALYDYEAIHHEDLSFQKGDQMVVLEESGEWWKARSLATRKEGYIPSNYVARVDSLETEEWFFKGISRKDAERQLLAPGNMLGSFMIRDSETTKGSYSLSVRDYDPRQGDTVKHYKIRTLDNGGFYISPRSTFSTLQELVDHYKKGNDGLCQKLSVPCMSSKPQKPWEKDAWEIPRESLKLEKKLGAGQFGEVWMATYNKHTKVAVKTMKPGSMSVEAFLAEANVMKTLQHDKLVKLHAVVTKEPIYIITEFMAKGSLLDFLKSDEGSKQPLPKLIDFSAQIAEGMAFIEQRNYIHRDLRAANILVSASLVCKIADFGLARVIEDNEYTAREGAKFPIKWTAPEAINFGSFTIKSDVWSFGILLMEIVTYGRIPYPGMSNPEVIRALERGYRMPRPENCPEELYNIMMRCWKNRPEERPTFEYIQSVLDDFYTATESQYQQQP
Sequence of Calcium/calmodulin-dependent protein kinase type II subunit delta (Homo sapiens) (Q13557 whole entry): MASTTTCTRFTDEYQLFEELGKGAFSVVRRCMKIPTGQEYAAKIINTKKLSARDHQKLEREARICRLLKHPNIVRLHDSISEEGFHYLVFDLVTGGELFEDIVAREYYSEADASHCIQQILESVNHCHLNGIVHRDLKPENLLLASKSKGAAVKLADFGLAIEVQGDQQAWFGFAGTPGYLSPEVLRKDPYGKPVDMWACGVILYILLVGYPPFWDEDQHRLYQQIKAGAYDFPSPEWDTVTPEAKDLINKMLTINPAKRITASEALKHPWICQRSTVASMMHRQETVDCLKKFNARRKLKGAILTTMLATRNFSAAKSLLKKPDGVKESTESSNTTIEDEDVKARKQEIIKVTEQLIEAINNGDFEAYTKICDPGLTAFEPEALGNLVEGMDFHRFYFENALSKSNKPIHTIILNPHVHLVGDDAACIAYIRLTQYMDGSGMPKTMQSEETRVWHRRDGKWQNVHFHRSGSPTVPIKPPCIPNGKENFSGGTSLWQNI

For `Oc1n[nH]c2nnc(-c3c(-c4ccccc4)nn4ccccc34)cc12`, the inhibition – broadly, the drop in the measured response relative to a control, in per cent – in [1] was 7.7%; in [2] it was -8.9%; in assay [3], 2.55%; in assay [4] it was 3.78%; in assay [5], 1.23%; in assay [6], -2.59%. Also, the inhibition was 4.34% in assay [7], 0.01% in [8] and -4.44% in [9].
On to `Nc1n[nH]c2nnc(-c3c(-c4ccccc4)nn4ccccc34)cc12`, for which the inhibition in [1] is 8.92%; in [2] it was 4.99%; in assay [3], 3.52%; in assay [4] it was 1.2%; in assay [5] it was 3.92%; in assay [6], -4.88%. Moreover, the figures for the inhibition in [7], in [8] and in assay [9] were 7.41%, -0.67% and 6.29%, respectively.
